Literature values as cited in US10130562B2, “Monomer mixture for the preparation of dental materials” (Ivoclar Vivadent AG, priority 2014, dated 2018).

Columns and labels:
rat = settings: in vivo

For `C=C(C)C(=O)OCCOCCOCCOC(=O)C(=C)C` [TEGDMA, triethylene glycol dimethacrylate], the LD50 (rat) is listed as over 5000 mg/kg and the “gene mutations in the DNA molecules of mammals” value (DNA molecules of mammals) is listed as “leads to gene mutations”.
